One may read the EC50 as the midpoint of the concentration-response curve.

SMILES strings stand for the structures. Like-named read-outs stand apart in the source and are kept apart here.

Experimental findings from patent US8916702B2 (priority 2012, dated 2014) are described below.

The test system of the assay is HCV pseudoparticles (genotype 1a HCV E1 and E2 envelope, H77C isolate). In words: microbe, parasite or virus in culture. In kind it is cell-based. To be noted: Hepatitis C virus.
The mark [1] stands for this setting: Huh-7, 48 h, read-out: Activity (EC50 class), HCV pseudoparticles, Huh7 cells, luciferase 2 days after infection, average of duplicates.
Setting [2] is: Huh-7, 48 h, read-out: Activity (EC50 class), HCV pseudoparticle infection of Huh7 cells, luciferase 2 days after infection, EC50 expressed as class A/B.
Where [3] appears, read: Huh-7, read-out: Activity (EC50 class), HCV pseudoparticles (genotype 1a, H77C) in Huh7 cells, EC50 expressed as class A/B.
Setting [4] is: Huh-7, 48 h, HCV pseudoparticles, Huh7 cells, luciferase 2 days after infection, average of duplicates.
The mark [5] stands for this setting: Huh-7, 48 h, HCV pseudoparticles (genotype 1a, H77C) in Huh7 cells, average of duplicate, luciferase 2 days after infection.

For the compound `Cc1ccc(NC(=O)C(=O)NCC(C)(C)CNC(=O)c2ccc(Nc3nc(NC4(c5ccc(Cl)cc5)CC4)nc(OCc4ccc(OC(F)F)cc4)n3)cc2)cc1` [Compound 3840], under setting [1], the EC50 fell in the range of 10 to 10000 pM.

As for `CNS(=O)(=O)c1cccc(NC(=O)C(=O)NCC[C@H](NC(=O)c2ccc(Nc3nc(NC4(c5ccc(Cl)cc5)CC4)nc(OCC(F)(F)F)n3)cc2)C(=O)O)c1` [Compound 3651], the EC50 under setting [1] was in the range of 10 to 10000 pM.

On to `O=C(NC[C@H](NC(=O)c1ccc(Nc2nc(NC3(c4ccc(Cl)cc4)CC3)nc(OCC(F)(F)F)n2)cc1)C(=O)Cl)C(=O)Nc1cccc(OCc2ccccc2)c1` [Compound 3742], for which the EC50 under setting [1] was 10 to 10000 pM.

With `CC(C)(CNC(=O)C(=O)Nc1nc2c(F)cc(F)cc2s1)CNC(=O)c1ccc(Nc2nc(NC3(c4ccc(Cl)cc4)CC3)nc(OCC(F)(F)F)n2)cc1` [Compound 3809], the EC50 under setting [1] was 10 to 10000 pM.

Turning to `C[C@@H](NC(=O)C(=O)NC[C@H](NC(=O)c1ccc(Nc2nc(NC3(c4ccc(Cl)cc4)CC3)nc(OCC(F)(F)F)n2)cc1)C(=O)O)C1CCCCC1` [Compound 1476], under setting [2], the EC50 was in the range of 10 to 10000 pM.

Take `CN(C)C(=O)C(=O)NCC(C)(C)CNC(=O)c1ccc(Nc2nc(NC3(c4ccc(Cl)cc4)CC3)nc(OCC(F)(F)F)n2)cc1` [Compound 1008, N1-(3-(4-(4-(1-(4-chlorophenyl)cyclopropylamino)-6-(2,2,2-trifluoroethoxy)-1,3,5-triazin-2-ylamino)benzamido)-2,2-dimethylpropyl)-N2,N2-dimethyloxalamide]: the EC50 under setting [2] was in the range of 10 to 10000 pM.

`COc1ccc(NC(=O)C(=O)NCC(C)(C)CNC(=O)c2ccc(Nc3nc(NC4(c5ccc(Cl)cc5)CC4)nc(OCC(F)(F)F)n3)cc2F)cc1` [Compound 3557]: the EC50 under setting [3] is 10 to 10000 pM.

Take `O=C(NC[C@H](NC(=O)c1ccc(Nc2nc(NC3(c4ccc(Cl)cc4)CC3)nc(OCC(F)(F)F)n2)cc1)C(=O)O)C(=O)N[C@@H]1C[C@@H]2CC[C@H]1C2` [Compound 1080]: the EC50 under setting [2] is 10 to 10000 pM.

For the compound `COC(=O)[C@H](CNC(=O)C(=O)NCC1OCCc2ccccc21)NC(=O)c1ccc(Nc2nc(NC3(c4ccc(Cl)cc4)CC3)nc(OCC(F)(F)F)n2)cc1` (some centres unmarked) [Compound 1297], under setting [2], the EC50 lay in the range of 10 to 10000 pM.

In the case of `Cn1ncc2ccc(NC(=O)C(=O)NCC(C)(C)CNC(=O)c3ccc(Nc4nc(NC5(c6ccc(Cl)cc6)CC5)nc(OCC(F)(F)F)n4)cc3)cc21` [Compound 3024], under setting [3], the EC50 was 10 to 10000 pM.

Turning to `CC(C)(CNC(=O)C(=O)Nc1ccc(-c2nn[nH]n2)cc1)CNC(=O)c1ccc(Nc2nc(NC3(c4ccc(Cl)cc4)CC3)nc(OCC(F)(F)F)n2)cc1` [Compound 1495], the EC50 under setting [2] was in the range of 10 to 10000 pM.

In the case of `CC(C)(CNC(=O)C(=O)Nc1cccc2c1Cc1ccccc1-2)CNC(=O)c1ccc(Nc2nc(NC3(c4ccc(Cl)cc4)CC3)nc(OCC(F)(F)F)n2)cc1` [Compound 3356], the EC50 under setting [3] was 10 to 10000 pM.

For the compound `CC(C)(CNC(=O)C(=O)Nc1ccccc1-c1cc2ccccc2[nH]1)CNC(=O)c1ccc(Nc2nc(NC3(c4ccc(Cl)cc4)CC3)nc(OCC(F)(F)F)n2)cc1` [Compound 3052], under setting [3], the EC50 was 10 to 10000 pM.

As to `CC(C)(CNC(=O)C(=O)Nc1nc2ccc(O)cc2s1)CNC(=O)c1ccc(Nc2nc(NC3(c4ccc(Cl)cc4)CC3)nc(OCC(F)(F)F)n2)cc1F` [Compound 3676], the EC50 under setting [1] fell in the range of 10 to 10000 pM.

With `Cc1ccc(NC(=O)C(=O)NCC(C)(C)CNC(=O)c2ccc(Nc3nc(NC4(c5ccc(Cl)cc5)CC4)nc(OCc4ccc(F)cc4)n3)cc2)cc1` [Compound 3845], the EC50 is 22 pM under setting [4] and 10 to 10000 pM under setting [1].

Consider `CC(C)(CNC(=O)C(=O)NCC1CC1)CNC(=O)c1ccc(Nc2nc(NC3(c4ccc(Cl)cc4)CC3)nc(OCC(F)(F)F)n2)cc1` [Compound 1032], for which the EC50 (GETYPE1A, Huh-7, 48 h, read-out: Activity (EC50 class), HCV pseudoparticle infection of Huh7 cells, luciferase 2 days after infection, EC50 expressed as class A/B) was 10 to 10000 pM.

Turning to `C[C@@H](NC(=O)C(=O)NCC[C@H](NC(=O)c1ccc(Nc2nc(NC3(c4ccc(Cl)cc4)CC3)nc(OCC(F)(F)F)n2)cc1)C(=O)O)C1CC1` [Compound 1420], the EC50 under setting [2] lay in the range of 10 to 10000 pM.

As for `CC(C)(CNC(=O)C(=O)Nc1ccc(-c2ccc(C(=O)O)cc2)cc1)CNC(=O)c1ccc(Nc2nc(NC3(c4ccc(Cl)cc4)CC3)nc(OCC(F)(F)F)n2)cc1` [Compound 1542], the EC50 under setting [2] was 10 to 10000 pM.

For the compound `COC(=O)[C@H](CNC(=O)C(=O)Nc1ccc(-c2ncco2)cc1)NC(=O)c1ccc(Nc2nc(NC3(c4ccc(Cl)cc4)CC3)nc(OCC(F)(F)F)n2)cc1` [Compound 3209], the EC50 under setting [3] was in the range of 10 to 10000 pM.

For the compound `CC(C)(C)C1CCC(NC(=O)C(=O)NC[C@H](NC(=O)c2ccc(Nc3nc(NC4(c5ccc(Cl)cc5)CC4)nc(OCC(F)(F)F)n3)cc2)C(=O)O)CC1` (some centres unmarked) [Compound 1090], the EC50 under setting [2] was in the range of 10 to 10000 pM.

Consider `CC(C)(C)CNC(=O)C(=O)NCC[C@H](NC(=O)c1ccc(Nc2nc(NC3(c4ccc(Cl)cc4)CC3)nc(OCC(F)(F)F)n2)cc1)C(=O)O` [Compound 1205], for which the EC50 under setting [2] lay in the range of 10 to 10000 pM.

For `Cc1ccc(NC(=O)C(=O)NC(C)(C)CNC(=O)c2ccc(Nc3nc(NC4(c5ccc(Cl)cc5)CC4)nc(OCC(F)(F)F)n3)cc2)cc1` [Compound 3417], the EC50 is, setting by setting: under setting [5], 32 pM; under setting [3], 10 to 10000 pM.

Regarding `O=C(NC[C@H](NC(=O)c1ccc(Nc2nc(NC3(c4ccc(Cl)cc4)CC3)nc(OCC(F)(F)F)n2)cc1)C(=O)O)C(=O)Nc1ccc(CC(F)(F)F)cc1` [Compound 3297], the EC50 under setting [3] lay in the range of 10 to 10000 pM.

Turning to `COC(=O)[C@H](CCNC(=O)C(=O)NCc1ccc(F)c(F)c1)NC(=O)c1ccc(Nc2nc(NC3(c4ccc(Cl)cc4)CC3)nc(OCC(F)(F)F)n2)cc1` [Compound 1159], the EC50 under setting [2] is 10 to 10000 pM.

In the case of `COC(=O)[C@H](CCNC(=O)C(=O)Nc1ccc(Cl)cc1)NC(=O)c1ccc(Nc2nc(NC3(c4ccc(Cl)cc4)CC3)nc(OCC(F)(F)F)n2)cc1` [Compound 1515], the EC50 under setting [2] was in the range of 10 to 10000 pM.

With `COC(=O)[C@H](CNC(=O)C(=O)NC(C)(C)Cc1ccc(F)cc1)NC(=O)c1ccc(Nc2nc(NC3(c4ccc(Cl)cc4)CC3)nc(OCC(F)(F)F)n2)cc1` [Compound 1296], the EC50 under setting [2] was in the range of 10 to 10000 pM.

As for `O=C(NCC[C@H](NC(=O)c1ccc(Nc2nc(NC3(c4ccc(Cl)cc4)CC3)nc(OCC(F)(F)F)n2)cc1)C(=O)O)C(=O)Nc1cc(F)cc(F)c1` [Compound 1507], the EC50 under setting [2] fell in the range of 10 to 10000 pM.

Consider `CCN(CC)CCNC(=O)c1ccc(NC(=O)C(=O)NC/C(=N/C(=O)c2ccc(Nc3nc(NC4(c5ccc(Cl)cc5)CC4)nc(OCC(F)(F)F)n3)cc2)C(=O)O)cc1` [Compound 3157], for which the EC50 under setting [3] was in the range of 10 to 10000 pM.

`COC(=O)/C(CCNC(=O)C(=O)Nc1ccc(Oc2ccccc2)nc1)=N\C(=O)c1ccc(Nc2nc(NC3(c4ccc(Cl)cc4)CC3)nc(OCC(F)(F)F)n2)cc1` [Compound 3593]: the EC50 under setting [3] fell in the range of 10 to 10000 pM.

Regarding `Cc1cc(C)n(-c2ccc(NC(=O)C(=O)NCC[C@H](NC(=O)c3ccc(Nc4nc(NC5(c6ccc(Cl)cc6)CC5)nc(OCC(F)(F)F)n4)cc3)C(=O)O)cc2)n1` [Compound 3238], under setting [3], the EC50 lay within 10 to 10000 pM.

As to `COc1cc(C)ccc1NC(=O)C(=O)NCC(C)(C)CNC(=O)c1ccc(Nc2nc(NC3(c4ccc(Cl)cc4)CC3)nc(OCC(F)(F)F)n2)cc1` [Compound 3070], the EC50 under setting [3] was in the range of 10 to 10000 pM.

As to `C=Cc1cccc(NC(=O)C(=O)NC[C@H](NC(=O)c2ccc(Nc3nc(NC4(c5ccc(Cl)cc5)CC4)nc(OCC(F)(F)F)n3)cc2)C(=O)OC)c1` [Compound 3690], under setting [1], the EC50 was in the range of 10 to 10000 pM.

`O=C(NC/C(=N/C(=O)c1ccc(Nc2nc(NC3(c4ccc(Cl)cc4)CC3)nc(OCC(F)(F)F)n2)cc1)C(=O)O)C(=O)Nc1ccc(Cc2ccccc2)cc1` [Compound 3159]: the EC50 under setting [3] lay in the range of 10 to 10000 pM.

For the compound `O=C(NCc1cccnc1)C(=O)NC[C@@H](NC(=O)c1ccc(Nc2nc(NC3(c4ccc(Cl)cc4)CC3)nc(OCC(F)(F)F)n2)cc1)C(=O)O` [Compound 1043], the EC50 under setting [2] was in the range of 10 to 10000 pM.

Turning to `CC1(C)[C@H]2CCC(CNC(=O)C(=O)NC[C@H](NC(=O)c3ccc(Nc4nc(NC5(c6ccc(Cl)cc6)CC5)nc(OCC(F)(F)F)n4)cc3)C(=O)O)[C@@H]1C2` (some centres unmarked) [Compound 1473], the EC50 under setting [2] is 10 to 10000 pM.

As to `Cn1nnnc1-c1cccc(NC(=O)C(=O)NC[C@H](NC(=O)c2ccc(Nc3nc(NC4(c5ccc(Cl)cc5)CC4)nc(OCC(F)(F)F)n3)cc2)C(=O)Cl)c1` [Compound 3786], the EC50 was 550 pM under setting [4] and 10 to 10000 pM under setting [1].

In the case of `O=C(NCC[C@H](NC(=O)c1ccc(Nc2nc(NC3(c4ccc(Cl)cc4)CC3)nc(OCC(F)(F)F)n2)cc1)C(=O)O)C(=O)Nc1ccncc1` [Compound 1278], under setting [2], the EC50 was 10 to 10000 pM.

In the case of `CC(C)(CNC(=O)C(=O)Nc1ccccc1C(N)=O)CNC(=O)c1ccc(Nc2nc(NC3(c4ccc(Cl)cc4)CC3)nc(OCC(F)(F)F)n2)cc1` [Compound 3375], under setting [3], the EC50 fell in the range of 10 to 10000 pM.

In the case of `COC(=O)[C@H](CNC(=O)C(=O)NCCc1cccc(F)c1)NC(=O)c1ccc(Nc2nc(NC3(c4ccc(Cl)cc4)CC3)nc(OCC(F)(F)F)n2)cc1` [Compound 1289], the EC50 under setting [2] lay in the range of 10 to 10000 pM.

With `Cn1nccc1NC(=O)C(=O)NCC(C)(C)CNC(=O)c1ccc(Nc2nc(NC3(c4ccc(Cl)cc4)CC3)nc(OCC(F)(F)F)n2)cc1` [Compound 3036], the EC50 under setting [3] is 10 to 10000 pM.

`CC(=O)c1ccccc1NC(=O)C(=O)NCC(C)(C)CNC(=O)c1ccc(Nc2nc(NC3(c4ccc(Cl)cc4)CC3)nc(OCC(F)(F)F)n2)cc1` [Compound 3377]: under setting [3], the EC50 was in the range of 10 to 10000 pM.

On to `COC(=O)[C@H](CNC(=O)C(=O)NCCc1ccccc1OC)NC(=O)c1ccc(Nc2nc(NC3(c4ccc(Cl)cc4)CC3)nc(OCC(F)(F)F)n2)cc1` [Compound 1285], for which the EC50 under setting [2] was in the range of 10 to 10000 pM.

On to `C=Cc1ccc(NC(=O)C(=O)NCC(C)(C)CNC(=O)c2ccc(Nc3nc(NC4(c5ccc(Cl)cc5)CC4)nc(OCC(F)(F)F)n3)cc2F)cc1` [Compound 3515], for which the EC50 by setting is: under setting [5], 17 pM; under setting [3], 10 to 10000 pM.
